Experimental data as given in patent US6916825B2, “Alkylated imidazopyridine derivatives” (Altana Pharma AG, priority 2000, dated 2005).

Key:
[1] = system: acid secretion of the perfused rat stomach stimulated by pentagastrin; test: Secretion-inhibiting action on perfused rat stomach (pentagastrin-stimulated acid secretion); type: in vivo; settings: anesthetized CD rats, dose 1 μmol/kg i.v.
Source text: Testing of the Secretion-inhibiting Action on Perfused Rat Stomach
In table A below, the influence of the compounds according to the invention after intravenous administration is shown on the acid secretion of the perfused rat stomach stimulated by pentagastrin.
The abdomen of anesthetized rats (CD rats, female, 200-250 g; 1.5 g/kg of i.m. urethane) was opened after tracheotomy by a median upper abdominal incision and a PVC catheter was fixed transorally in the esophagus and a further one via the pylorus such that the ends of the tubing just still projected into the gastric lumen. The catheter leading from the pylorus led outwards via a side opening in the right abdominal wall.
After thorough rinsing (about 50-100 ml), a continuous flow of warm physiological NaCl solution (0.5 ml/min, pH 6.8-6.9; Braun-Unita I) was continuously passed through the stomach at 37° C. The pH in the effluent, in each case collected at an interval of 15 minutes, was determined (pH meter 632, glass electrode EA 147; φ=5 mm, Metrohm) and the secreted HCl was determined by titration with a freshly prepared 0.01 N NaOH solution to pH 7 (Dosimat 665 Metrohm).
Gastric secretion was stimulated by continuous infusion of 1 μg/kg (=1.65 ml/h) of i.v. pentagastrin (left femoral vein) about 30 min after the end of the operation (i.e. after determination of 2 preliminary fractions). The substances to be tested were administered intravenously in 1 ml/kg of fluid volume 60 min after the start of the pentagastrin continuous infusion.
The body temperature of the animals was kept at a constant 37.8-38° C. by means of infrared irradiation and heating pads (automatic, step-free control via a rectal temperature sensor).

SMILES	melting point [°C]	Inhibition of acid secretion [1] [%]
Cc1nc2c3c(ccn2c1C)C(=O)[C@](O)(Cc1ccccc1)[C@@H](c1ccccc1)N3 [Example 3, (8S,9R)-2,3-Dimethyl-8-benzyl-8-hydroxy-9-phenyl-7,8,9,10-tetrahydroimidazo[1,2-h][1,7]naphthyridin-7-one]	248 to 251	
Cc1nc2c3c(ccn2c1C)[C@@](C)(O)[C@H](O)[C@@H](c1ccccc1)O3 [Example 12, (7R,8R,9R)-2,3,7-Trimethyl-7,8-dihydroxy-9-phenyl-7H-8,9-dihydropyrano[2,3-c]imidazo[1,2-a]-pyridine]		100
C=C1c2ccn3c(C)c(C)nc3c2N[C@H](c2ccccc2)[C@H]1O [Example 10, (8S,9R)-2,3-Dimethyl-8-hydroxy-7-methylidene-9-phenyl-7,8,9,10-tetrahydroimidazo[1,2-h][1,7]-naphthyridine]	199 to 202	100
CO[C@H]1c2ccn3c(C)c(C)nc3c2N[C@H](c2ccccc2)[C@]1(C)O [Example 7, (7S,8S,9R)-2,3,8-Trimethyl-7-methoxy-8-hydroxy-9-phenyl-7,8,9,10-tetrahydroimidazo[1,2-h]-[1,7]naphthyridine]	190	
Cc1nc2c3c(ccn2c1C)C(=O)[C@@](C)(O)[C@@H](c1ccccc1)N3 [Example 1, (8S,9R)-2,3,8-Trimethyl-8-hydroxy-9-phenyl-7,8,9,10-tetrahydroimidazo[1,2-h][1,7]naphthyridin-7-one]	240	

More lines, main results first:

melting point [°C]	SMILES	Inhibition of acid secretion [1] [%]
180	Cc1nc2c3c(ccn2c1C)[C@@H](O)[C@@](C)(O)[C@@H](c1ccccc1)N3 [Example 2, (7R,8S,9R)-2,3,8-Trimethyl-7,8-dihydroxy-9-phenyl-7,8,9,10-tetrahydroimidazo[1,2-h][1,7]naphthyridine]	100
137 to 138	Cc1nc2c3c(ccn2c1C)[C@@](C)(O)[C@H](O)[C@@H](c1ccccc1)N3 [Example 8, (7R,8R,9R)-2,3,7-Trimethyl-7,8-dihydroxy-9-phenyl-7,8,9,10-tetrahydroimidazo[1,2-h][1,7]-naphthyridine]	100
115 to 122	Cc1nc2c3c(ccn2c1C)[C@H](O)[C@](O)(Cc1ccccc1)[C@@H](c1ccccc1)N3 [Example 4, (7S,8S,9R)-2,3-Dimethyl-8-benzyl-7,8-dihydroxy-9-phenyl-7,8,9,10-tetrahydroimidazo[1,2-h][1,7]-naphthyridine]	
